Measurements taken from ChEMBL document CHEMBL5696442, “Discovery of type II inhibitors of TGFβ-activated kinase 1 (TAK1) and mitogen-activated protein kinase kinase kinase kinase 2 (MAP4K2)” (J Med Chem, 2015).

Experiments:
[1] = molecular target: T1, Serine/threonine-protein kinase ULK3 (Homo sapiens) (UniProt Q6PHR2); experiment: Inhibition of ULK3 Lys2 labeling site in human A-375 cells at 5 uM by KiNativ Profiling analysis relative to control; assay type: cell-based
T1 sequence (whole entry): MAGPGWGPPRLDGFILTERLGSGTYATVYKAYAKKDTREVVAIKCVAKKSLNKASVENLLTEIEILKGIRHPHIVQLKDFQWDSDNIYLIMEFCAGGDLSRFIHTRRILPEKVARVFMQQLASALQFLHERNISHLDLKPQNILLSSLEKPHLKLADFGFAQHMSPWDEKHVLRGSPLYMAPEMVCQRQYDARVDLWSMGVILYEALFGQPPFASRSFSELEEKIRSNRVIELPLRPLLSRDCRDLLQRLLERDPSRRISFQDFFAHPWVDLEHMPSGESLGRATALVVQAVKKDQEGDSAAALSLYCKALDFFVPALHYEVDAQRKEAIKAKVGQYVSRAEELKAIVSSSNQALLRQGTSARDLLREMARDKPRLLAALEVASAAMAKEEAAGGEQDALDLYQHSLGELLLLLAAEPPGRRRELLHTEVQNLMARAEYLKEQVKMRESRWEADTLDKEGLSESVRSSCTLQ

[2] = molecular target: Serine/threonine-protein kinase Nek7 (Homo sapiens) (UniProt Q8TDX7); experiment: Inhibition of NEK7 Lys1 labeling site in human A-375 cells at 5 uM by KiNativ Profiling analysis relative to control; assay type: cell-based
Serine/threonine-protein kinase Nek7 (Homo sapiens), sequence (Q8TDX7 whole entry, looked up, the tested form may be a part): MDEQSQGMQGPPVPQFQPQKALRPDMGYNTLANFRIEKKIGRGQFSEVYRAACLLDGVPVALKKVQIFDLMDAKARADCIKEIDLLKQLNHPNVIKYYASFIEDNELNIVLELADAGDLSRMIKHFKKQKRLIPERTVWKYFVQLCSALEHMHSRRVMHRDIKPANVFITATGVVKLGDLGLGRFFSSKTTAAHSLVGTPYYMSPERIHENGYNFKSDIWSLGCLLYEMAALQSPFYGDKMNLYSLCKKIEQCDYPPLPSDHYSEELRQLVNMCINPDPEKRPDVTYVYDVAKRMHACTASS

[3] = molecular target: eIF-2-alpha kinase GCN2 (Homo sapiens) (UniProt Q9P2K8); experiment: Inhibition of GCN2 domain2 Lys2 labeling site in human A-375 cells at 5 uM by KiNativ Profiling analysis relative to control; assay type: cell-based
eIF-2-alpha kinase GCN2 (Homo sapiens), sequence (Q9P2K8 whole entry, the tested form may be a part): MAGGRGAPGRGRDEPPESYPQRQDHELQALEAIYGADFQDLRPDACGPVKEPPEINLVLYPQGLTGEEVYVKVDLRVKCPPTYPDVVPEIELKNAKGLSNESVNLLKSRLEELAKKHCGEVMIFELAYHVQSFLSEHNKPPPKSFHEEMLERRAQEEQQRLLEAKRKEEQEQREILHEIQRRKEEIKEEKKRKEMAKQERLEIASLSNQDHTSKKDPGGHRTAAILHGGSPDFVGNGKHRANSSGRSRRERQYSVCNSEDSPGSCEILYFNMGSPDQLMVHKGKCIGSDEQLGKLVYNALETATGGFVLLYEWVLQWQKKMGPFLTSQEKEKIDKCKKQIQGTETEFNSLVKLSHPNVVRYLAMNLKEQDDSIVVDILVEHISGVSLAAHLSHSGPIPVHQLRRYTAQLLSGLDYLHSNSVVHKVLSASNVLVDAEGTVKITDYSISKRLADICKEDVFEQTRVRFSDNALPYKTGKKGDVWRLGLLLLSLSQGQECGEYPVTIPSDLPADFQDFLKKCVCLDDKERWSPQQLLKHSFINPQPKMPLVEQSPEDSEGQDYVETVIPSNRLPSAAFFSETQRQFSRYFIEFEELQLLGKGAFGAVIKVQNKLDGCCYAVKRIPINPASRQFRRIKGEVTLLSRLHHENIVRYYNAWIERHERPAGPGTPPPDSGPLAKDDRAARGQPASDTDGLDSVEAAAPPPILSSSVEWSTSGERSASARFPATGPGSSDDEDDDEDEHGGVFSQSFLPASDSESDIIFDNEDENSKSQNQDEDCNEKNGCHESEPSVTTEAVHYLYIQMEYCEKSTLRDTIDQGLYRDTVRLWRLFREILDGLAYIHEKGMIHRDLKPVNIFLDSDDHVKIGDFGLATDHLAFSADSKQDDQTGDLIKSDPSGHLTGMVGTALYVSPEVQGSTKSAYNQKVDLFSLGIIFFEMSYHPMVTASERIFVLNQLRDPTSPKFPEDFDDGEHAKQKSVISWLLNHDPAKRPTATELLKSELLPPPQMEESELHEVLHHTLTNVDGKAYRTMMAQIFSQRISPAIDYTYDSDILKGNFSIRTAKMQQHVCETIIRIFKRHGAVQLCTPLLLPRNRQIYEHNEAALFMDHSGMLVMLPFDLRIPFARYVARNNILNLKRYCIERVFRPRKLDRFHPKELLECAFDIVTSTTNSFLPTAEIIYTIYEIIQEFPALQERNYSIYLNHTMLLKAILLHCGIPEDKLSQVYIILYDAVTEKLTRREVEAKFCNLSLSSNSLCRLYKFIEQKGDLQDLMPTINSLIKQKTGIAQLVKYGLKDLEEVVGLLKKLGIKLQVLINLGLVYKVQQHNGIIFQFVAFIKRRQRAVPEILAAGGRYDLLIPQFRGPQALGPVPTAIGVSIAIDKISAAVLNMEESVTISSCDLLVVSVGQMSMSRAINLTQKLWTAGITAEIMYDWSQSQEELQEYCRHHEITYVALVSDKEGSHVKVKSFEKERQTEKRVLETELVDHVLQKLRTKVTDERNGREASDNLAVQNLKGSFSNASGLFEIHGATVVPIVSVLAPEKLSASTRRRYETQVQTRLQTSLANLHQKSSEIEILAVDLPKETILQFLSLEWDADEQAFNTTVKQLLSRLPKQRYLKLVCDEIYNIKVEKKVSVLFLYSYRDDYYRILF

[4] = molecular target: TRAF2 and NCK-interacting protein kinase (Homo sapiens) (UniProt Q9UKE5); experiment: Inhibition of ZC2/TNIK Lys2 labeling site in human A-375 cells at 0.5 uM by KiNativ Profiling analysis relative to control; assay type: cell-based
TRAF2 and NCK-interacting protein kinase (Homo sapiens), sequence (Q9UKE5 whole entry, looked up): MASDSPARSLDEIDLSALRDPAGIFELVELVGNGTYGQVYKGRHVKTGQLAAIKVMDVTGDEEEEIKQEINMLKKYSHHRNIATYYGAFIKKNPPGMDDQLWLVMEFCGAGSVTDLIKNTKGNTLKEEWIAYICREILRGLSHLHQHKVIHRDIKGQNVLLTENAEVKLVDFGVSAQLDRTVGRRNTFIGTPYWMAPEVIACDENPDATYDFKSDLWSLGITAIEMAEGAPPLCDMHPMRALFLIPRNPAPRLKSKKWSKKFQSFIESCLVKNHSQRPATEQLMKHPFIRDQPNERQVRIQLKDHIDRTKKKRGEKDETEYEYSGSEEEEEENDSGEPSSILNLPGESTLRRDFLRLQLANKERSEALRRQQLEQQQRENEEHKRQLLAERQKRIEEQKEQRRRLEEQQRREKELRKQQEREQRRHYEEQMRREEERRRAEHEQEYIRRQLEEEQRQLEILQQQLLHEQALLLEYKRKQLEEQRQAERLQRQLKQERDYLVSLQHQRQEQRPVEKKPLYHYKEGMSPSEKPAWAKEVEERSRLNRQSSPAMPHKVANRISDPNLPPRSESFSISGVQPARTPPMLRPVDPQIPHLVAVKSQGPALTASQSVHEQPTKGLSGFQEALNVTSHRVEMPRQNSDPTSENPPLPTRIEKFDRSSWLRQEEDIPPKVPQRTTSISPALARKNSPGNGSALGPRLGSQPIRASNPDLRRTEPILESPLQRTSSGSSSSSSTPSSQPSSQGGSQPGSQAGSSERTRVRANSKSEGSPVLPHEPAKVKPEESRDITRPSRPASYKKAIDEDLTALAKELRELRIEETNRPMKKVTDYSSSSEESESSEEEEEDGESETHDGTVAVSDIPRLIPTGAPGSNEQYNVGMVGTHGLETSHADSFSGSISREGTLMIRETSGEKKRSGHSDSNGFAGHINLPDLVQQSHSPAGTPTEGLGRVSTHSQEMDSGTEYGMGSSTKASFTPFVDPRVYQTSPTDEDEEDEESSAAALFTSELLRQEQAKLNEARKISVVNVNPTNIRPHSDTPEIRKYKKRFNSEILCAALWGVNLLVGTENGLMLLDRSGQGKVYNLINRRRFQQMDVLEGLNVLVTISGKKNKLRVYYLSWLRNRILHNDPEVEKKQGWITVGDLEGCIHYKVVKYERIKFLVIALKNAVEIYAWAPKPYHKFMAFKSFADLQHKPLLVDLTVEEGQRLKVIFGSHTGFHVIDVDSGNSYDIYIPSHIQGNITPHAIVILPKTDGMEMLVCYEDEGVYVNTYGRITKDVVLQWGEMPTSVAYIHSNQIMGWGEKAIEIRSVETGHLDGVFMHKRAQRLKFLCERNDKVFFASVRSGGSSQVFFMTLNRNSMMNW

[5] = Cmax in Swiss albino mouse at 10 mg/kg, po measured upto 24 hrs by LC/MS/MS analysis; assay type: ADME, organism-based; settings: in vivo
[6] = molecular target: T2, Inhibitor of nuclear factor kappa-B kinase subunit alpha (Homo sapiens) (UniProt O15111); experiment: Inhibition of IKKa Lys2 labeling site in human A-375 cells at 0.5 uM by KiNativ Profiling analysis relative to control; assay type: cell-based
T2 sequence (whole entry): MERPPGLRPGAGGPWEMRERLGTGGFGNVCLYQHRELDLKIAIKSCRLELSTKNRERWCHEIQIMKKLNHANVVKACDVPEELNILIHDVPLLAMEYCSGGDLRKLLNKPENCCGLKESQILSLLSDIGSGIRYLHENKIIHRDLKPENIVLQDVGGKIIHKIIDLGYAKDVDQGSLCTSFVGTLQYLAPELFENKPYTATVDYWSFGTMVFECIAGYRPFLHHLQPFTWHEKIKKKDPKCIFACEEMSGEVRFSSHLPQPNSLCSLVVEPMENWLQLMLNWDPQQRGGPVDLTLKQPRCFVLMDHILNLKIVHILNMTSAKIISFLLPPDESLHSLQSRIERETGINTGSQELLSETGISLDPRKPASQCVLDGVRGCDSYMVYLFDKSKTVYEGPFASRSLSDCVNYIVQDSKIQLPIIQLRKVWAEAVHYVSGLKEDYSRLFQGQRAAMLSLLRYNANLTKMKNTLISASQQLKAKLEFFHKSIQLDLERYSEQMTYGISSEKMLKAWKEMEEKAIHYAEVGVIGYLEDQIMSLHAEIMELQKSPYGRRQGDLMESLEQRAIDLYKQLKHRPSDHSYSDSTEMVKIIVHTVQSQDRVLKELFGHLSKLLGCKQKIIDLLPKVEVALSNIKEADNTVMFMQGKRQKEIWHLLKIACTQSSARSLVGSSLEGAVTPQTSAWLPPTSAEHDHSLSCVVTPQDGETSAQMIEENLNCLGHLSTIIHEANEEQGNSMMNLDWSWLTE

[7] = molecular target: Cyclin-dependent kinase 16 (Homo sapiens) (UniProt Q00536); experiment: Inhibition of PCTAIRE1 Lys1 labeling site in human A-375 cells at 5 uM by KiNativ Profiling analysis relative to control; assay type: cell-based
Cyclin-dependent kinase 16 (Homo sapiens), sequence (Q00536 whole entry): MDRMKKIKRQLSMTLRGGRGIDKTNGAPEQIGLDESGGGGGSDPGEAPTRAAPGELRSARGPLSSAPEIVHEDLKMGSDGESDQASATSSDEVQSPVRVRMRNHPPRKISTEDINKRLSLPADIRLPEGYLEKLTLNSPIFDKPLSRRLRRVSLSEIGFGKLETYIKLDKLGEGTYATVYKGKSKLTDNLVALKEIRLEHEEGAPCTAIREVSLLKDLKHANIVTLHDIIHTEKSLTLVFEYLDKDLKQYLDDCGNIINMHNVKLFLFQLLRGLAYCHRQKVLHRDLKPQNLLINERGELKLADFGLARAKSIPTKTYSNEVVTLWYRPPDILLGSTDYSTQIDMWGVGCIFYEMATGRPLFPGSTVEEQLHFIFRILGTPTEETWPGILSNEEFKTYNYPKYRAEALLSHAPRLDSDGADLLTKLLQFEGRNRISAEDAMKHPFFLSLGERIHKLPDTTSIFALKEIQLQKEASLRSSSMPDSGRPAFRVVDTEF

[8] = molecular target: Cyclin-dependent kinase 17 (Homo sapiens) (UniProt Q00537); experiment: Inhibition of PCTAIRE2 Lys1 labeling site harbouring SKLTENLVALKEIR in human A-375 cells at 0.5 uM by KiNativ Profiling analysis relative to control; assay type: cell-based
Cyclin-dependent kinase 17 (Homo sapiens), sequence (Q00537 whole entry, looked up): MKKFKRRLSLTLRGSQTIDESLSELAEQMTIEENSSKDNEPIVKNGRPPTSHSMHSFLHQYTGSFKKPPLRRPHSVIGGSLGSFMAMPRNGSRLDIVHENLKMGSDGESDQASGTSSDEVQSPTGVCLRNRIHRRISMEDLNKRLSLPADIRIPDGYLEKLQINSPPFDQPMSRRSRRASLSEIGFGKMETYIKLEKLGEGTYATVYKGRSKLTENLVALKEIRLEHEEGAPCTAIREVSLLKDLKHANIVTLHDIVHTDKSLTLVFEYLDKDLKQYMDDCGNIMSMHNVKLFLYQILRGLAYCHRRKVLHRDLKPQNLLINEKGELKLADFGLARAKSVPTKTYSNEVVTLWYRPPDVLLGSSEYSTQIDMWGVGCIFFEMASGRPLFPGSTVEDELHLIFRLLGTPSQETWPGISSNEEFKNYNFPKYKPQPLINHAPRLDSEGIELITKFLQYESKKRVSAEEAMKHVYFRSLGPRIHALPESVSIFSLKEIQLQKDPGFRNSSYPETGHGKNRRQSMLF

[9] = molecular target: Cyclin-dependent kinase 17 (Homo sapiens) (UniProt Q00537); experiment: Inhibition of PCTAIRE2 Lys2 labeling site in human A-375 cells at 5 uM by KiNativ Profiling analysis relative to control; assay type: cell-based
[10] = molecular target: T3, Serine/threonine-protein kinase 3 (Homo sapiens) (UniProt Q13188); experiment: Inhibition of MST2 Lys1 labeling site in human A-375 cells at 0.05 uM by KiNativ Profiling analysis relative to control; assay type: cell-based
T3 sequence (whole entry): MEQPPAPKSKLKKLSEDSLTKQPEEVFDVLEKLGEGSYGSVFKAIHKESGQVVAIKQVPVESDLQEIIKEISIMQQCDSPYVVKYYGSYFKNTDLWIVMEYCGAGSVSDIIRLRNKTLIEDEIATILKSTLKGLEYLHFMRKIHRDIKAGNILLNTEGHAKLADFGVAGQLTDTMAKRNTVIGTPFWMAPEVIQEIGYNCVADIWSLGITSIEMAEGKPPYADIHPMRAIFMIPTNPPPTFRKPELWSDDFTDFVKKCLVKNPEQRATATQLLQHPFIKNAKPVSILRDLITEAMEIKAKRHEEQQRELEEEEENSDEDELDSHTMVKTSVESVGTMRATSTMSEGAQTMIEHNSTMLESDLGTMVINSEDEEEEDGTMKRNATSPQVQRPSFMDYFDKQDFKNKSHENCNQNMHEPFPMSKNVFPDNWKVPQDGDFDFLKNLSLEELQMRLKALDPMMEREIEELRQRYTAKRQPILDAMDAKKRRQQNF

[11] = molecular target: Mitogen-activated protein kinase 14 (Homo sapiens, UniProt Q16539); experiment: Inhibition of p38 alpha in human Huh-7 cell lysate at 1 uM by KiNativ Profiling analysis relative to control; assay type: subcellular
Mitogen-activated protein kinase 14, sequence (Q16539 whole entry): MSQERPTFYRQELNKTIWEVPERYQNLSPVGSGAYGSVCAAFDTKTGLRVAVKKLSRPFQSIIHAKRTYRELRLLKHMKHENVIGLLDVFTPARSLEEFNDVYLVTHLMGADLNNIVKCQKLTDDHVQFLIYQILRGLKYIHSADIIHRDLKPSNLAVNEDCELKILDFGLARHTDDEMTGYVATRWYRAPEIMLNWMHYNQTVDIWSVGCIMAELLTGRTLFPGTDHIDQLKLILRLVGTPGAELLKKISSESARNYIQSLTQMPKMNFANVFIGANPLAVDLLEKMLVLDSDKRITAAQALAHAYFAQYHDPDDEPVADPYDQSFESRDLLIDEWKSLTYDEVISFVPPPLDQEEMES

| SMILES | inhibition [1] | inhibition [2] | inhibition [3] | inhibition [4] | Cmax [5] | inhibition [6] | inhibition [7] | inhibition [8] | inhibition [9] | inhibition [10] | inhibition [11] |
| --- | --- | --- | --- | --- | --- | --- | --- | --- | --- | --- | --- |
| CCN1CCN(Cc2ccc(NC(=O)c3ccc(C)c(Oc4ccnc5[nH]ccc45)c3)cc2C(F)(F)F)CC1 | 44.8% | 0.3% | 44.3% | 70.8% | 316 ng/mL | 33.4% | 72.6% | 31.7% | 87% | -6.5% |  |
| CNc1cc(Oc2cc(C(=O)Nc3cc(-n4cnc(C)c4)cc(C(F)(F)F)c3)ccc2C)ncn1 |  |  |  |  |  |  |  |  |  |  | 13.4% |
| CNc1cc(Oc2cc(C(=O)Nc3cc(N4CCN(C)CC4)cc(C(F)(F)F)c3)ccc2C)ncn1 |  |  |  |  |  |  |  |  |  |  | 27.1% |
| CCN1CCN(Cc2ccc(NC(=O)c3ccc(C)c(/C=C/c4cnc5[nH]ccc5c4OC)c3)cc2C(F)(F)F)CC1 | 52.5% | -1.8% | 83.3% | 48.1% | 163 ng/mL | 13.3% | 32.1% | 11.3% | 27.8% | 9.2% |  |
